The values that follow are results of earlier work, collected in patent US20250361307A1, “COMBINATION THERAPIES FOR TREATING HYPERPROLIFERATIVE DISORDERS” (X4 Pharmaceuticals, Inc., priority 2022, published 2025).

One data set deals with BCL-2 (Homo sapiens, UniProt P10415). The conditions noted are these: cited from earlier work.
The next data set deals with BCL-XL (Homo sapiens, UniProt Q07817). The following applies: cited from earlier work.
Another data set concerns the target T1, BCL-w (Homo sapiens, UniProt Q92843).
T1 sequence (Q92843 1-193): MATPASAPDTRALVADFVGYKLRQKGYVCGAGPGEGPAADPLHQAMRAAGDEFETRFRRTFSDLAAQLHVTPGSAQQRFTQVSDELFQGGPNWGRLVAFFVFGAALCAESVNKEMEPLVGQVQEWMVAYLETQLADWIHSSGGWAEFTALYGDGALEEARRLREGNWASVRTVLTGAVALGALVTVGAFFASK
The conditions noted are these: cited from earlier work.

The target of another data set is T2, A1 (Homo sapiens, UniProt Q16548).
T2 sequence (Q16548 1-175): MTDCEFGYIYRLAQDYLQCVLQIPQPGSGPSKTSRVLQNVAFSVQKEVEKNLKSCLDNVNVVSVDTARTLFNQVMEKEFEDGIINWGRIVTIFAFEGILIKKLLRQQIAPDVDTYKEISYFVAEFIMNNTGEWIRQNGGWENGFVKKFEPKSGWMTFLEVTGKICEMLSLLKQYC
The following applies: cited from earlier work.

In a further data set the target is MCL-1 (Homo sapiens, UniProt Q07820). The conditions noted are these: cited from earlier work.
Chain of MCL-1 (Q07820 whole entry): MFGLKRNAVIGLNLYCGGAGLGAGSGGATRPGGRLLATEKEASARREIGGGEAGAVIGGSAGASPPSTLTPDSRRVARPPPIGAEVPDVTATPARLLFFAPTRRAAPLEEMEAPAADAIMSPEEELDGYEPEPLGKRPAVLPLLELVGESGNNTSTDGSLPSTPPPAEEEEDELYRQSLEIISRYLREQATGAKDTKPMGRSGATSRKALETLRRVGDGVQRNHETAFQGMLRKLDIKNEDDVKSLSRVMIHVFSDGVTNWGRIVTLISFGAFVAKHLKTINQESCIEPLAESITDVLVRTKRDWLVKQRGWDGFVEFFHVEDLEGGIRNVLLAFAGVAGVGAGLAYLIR
In data set [1] the test system is small-cell lung cancer and hematologic cell lines. The following applies: in vivo; cited from earlier work.
The test system of a further data set is platelets. The following applies: cited from earlier work.
In another data set the target is T3, BTK (Homo sapiens, UniProt Q06187).
T3 construct: endogenous in cells
T3 sequence (Q06187 whole entry): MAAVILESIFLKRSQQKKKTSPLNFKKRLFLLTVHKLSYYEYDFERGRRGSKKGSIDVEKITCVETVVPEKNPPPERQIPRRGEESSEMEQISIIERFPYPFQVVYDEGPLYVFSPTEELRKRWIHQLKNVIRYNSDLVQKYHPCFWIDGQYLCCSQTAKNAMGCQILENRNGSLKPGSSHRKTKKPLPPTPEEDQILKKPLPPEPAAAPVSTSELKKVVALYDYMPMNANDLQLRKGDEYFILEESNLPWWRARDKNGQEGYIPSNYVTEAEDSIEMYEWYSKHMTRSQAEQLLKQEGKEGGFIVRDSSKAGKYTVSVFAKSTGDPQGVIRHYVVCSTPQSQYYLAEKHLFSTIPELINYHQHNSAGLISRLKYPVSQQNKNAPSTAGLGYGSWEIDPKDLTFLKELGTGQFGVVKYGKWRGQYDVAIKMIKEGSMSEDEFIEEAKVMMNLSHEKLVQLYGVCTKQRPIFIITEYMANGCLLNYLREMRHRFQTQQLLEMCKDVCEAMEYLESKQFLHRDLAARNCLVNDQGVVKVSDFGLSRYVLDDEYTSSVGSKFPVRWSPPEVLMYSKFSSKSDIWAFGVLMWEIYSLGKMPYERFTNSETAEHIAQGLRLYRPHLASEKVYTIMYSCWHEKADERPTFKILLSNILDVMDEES
The following applies: patients with relapsed/refractory CLL and other B-cell disorders; cited from earlier work.

Chain of BCL-XL (Q07817 whole entry): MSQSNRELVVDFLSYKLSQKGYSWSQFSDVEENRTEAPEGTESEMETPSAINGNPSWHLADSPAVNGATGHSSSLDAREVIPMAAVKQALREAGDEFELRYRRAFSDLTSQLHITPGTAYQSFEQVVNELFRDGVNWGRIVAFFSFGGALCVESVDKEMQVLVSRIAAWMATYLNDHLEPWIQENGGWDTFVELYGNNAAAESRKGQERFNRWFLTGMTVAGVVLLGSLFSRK
Chain of BCL-2 (P10415 whole entry): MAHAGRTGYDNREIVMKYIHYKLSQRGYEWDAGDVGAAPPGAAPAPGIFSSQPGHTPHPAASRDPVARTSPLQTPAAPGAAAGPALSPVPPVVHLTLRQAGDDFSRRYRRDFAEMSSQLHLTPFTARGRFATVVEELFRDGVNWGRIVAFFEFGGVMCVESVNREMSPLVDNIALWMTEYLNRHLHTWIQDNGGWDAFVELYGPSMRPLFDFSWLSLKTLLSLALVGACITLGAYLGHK

For `CC1(C)CCC(c2ccc(Cl)cc2)=C(CN2CCN(c3ccc(C(=O)NS(=O)(=O)c4ccc(N[C@H](CCN5CCOCC5)CSc5ccccc5)c(S(=O)(=O)C(F)(F)F)c4)cc3)CC2)C1` [navitoclax], the “interaction with BCL-2” value at BCL-2 is listed as “high affinity”. The “interaction with BCL-XL” value on BCL-XL is on record as “high affinity”. Further, the “interaction with BCL-w” value on BCL-w is “high affinity”. Moreover, the “activity against A1” value at A1 is given as “no activity”. For the same molecule, the “activity against MCL-1” value at MCL-1 is “no activity”. Further, the tumor responses result in data set [1] is “rapid and complete tumor responses”.

As to `CC1(C)CCC(CN2CCN(c3ccc(C(=O)NS(=O)(=O)c4ccc(NCC5CCOCC5)c([N+](=O)[O-])c4)c(Oc4cnc5[nH]ccc5c4)c3)CC2)=C(c2ccc(Cl)cc2)C1` [venetoclax], the platelet numbers result in the data set on platelets is on record as “little effect”.

On to `NC(=O)c1ncc(N2CCCCC2)nc1Nc1ccc(C2CCN(C[C@H]3CCN(c4ccc5c(c4)C(=O)N(C4CCC(=O)NC4=O)C5=O)C3)CC2)cc1` (some centres unmarked) [NX-2127], for which, on BTK, the “degradation of BTK” value is reported as “clinically meaningful degradation”.
